From US20090246198A1, “MAPK/ERK KINASE INHIBITORS AND METHODS OF USE THEREOF” (TAKEDA PHARMACEUTICAL COMPANY LIMITED, priority 2008, published 2009)

Biological target: T1, MEK1 (Homo sapiens, UniProt Q02750, DEL33-52/S218E/S222D)
T1 construct: 6-histidine tag (N); made in house; host or cells: MEK1: baculovirus / Spodoptera frugiperda Sf9; ERK1: E. coli
Assay: MEK1 inhibition, fluorescence polarization (IMAP) assay with ERK1 and FI-Erktide
Type: biochemical
Settings: 1 nM MEK1, 25 nM ERK1, 400 μM ATP, 22 min at room temperature; read-out: pIC50 (nM); IC50 of Exemplified Compounds against MEK1 (converted)
Experimental: […] […] […] SEQ ID NO: 2 is the DNA sequence that was used to encode SEQ ID NO: 1.
The inhibitory properties of compounds relative to MEK1 or MEK2 may be determined using a black 384-well-plate format under the following reaction conditions: 50 mM HEPES pH 7.3, 10 mM NaCl, 10 mM MgCl2, 0.01% Brij35, 1 nM MEK1 or 4 nM MEK2, 25 nM ERK1, 400 μM ATP, 500 nM IPTTPITTYFFFK-5FAM-COOH (FI-Erktide), and 1% DMSO. Reaction product is determined quantitatively by fluorescent polarization using progressive IMAP beads from Molecular Devices.
The assay reaction may be initiated as follows: 2 μl of the mixture of 1.5 μM FI-Erktide and 75 nM ERK with 2 μl of inhibitor (2 fold serial dilutions for 11 data points for each inhibitor) containing 3% DMSO were added to each well of the plate, followed by the addition of 2 μl of the mixture of 3 nM MEK1 or 12 nM MEK2and 1200 μM ATP to initiate the reaction (final enzyme concentration was 1 nM for MEK1 or 4 nM for MEK2). The reaction mixture may then be incubated at room temperature for 22 min, and quenched and developed by addition of 20 μl of 1:200 dilution of progressive IMAP beads (Molecular Devices) in 80% buffer A, 20% buffer B and 0.003% Tween 20. Fluorescence polarization of the resulting reaction mixtures may be measured after a 1 hour incubation at room temperature.
IC50 values may be calculated by non-linear curve fitting of the compound concentrations and fluorescence polarization signal to the standard IC50 equation.

T1 sequence (Q02750 with tags, fused parts or gaps DEL33-52/S218E/S222D): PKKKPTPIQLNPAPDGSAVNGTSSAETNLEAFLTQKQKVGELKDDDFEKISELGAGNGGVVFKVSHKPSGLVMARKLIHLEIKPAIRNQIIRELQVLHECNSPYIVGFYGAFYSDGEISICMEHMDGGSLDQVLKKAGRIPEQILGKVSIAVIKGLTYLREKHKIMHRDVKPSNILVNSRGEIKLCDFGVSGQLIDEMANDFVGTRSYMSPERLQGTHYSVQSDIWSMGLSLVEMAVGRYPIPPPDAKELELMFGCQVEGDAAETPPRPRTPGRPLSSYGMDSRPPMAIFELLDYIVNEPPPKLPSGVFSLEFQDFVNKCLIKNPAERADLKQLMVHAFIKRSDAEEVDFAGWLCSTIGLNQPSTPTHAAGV

Structure (SMILES) | IC50 [nM]
Cn1c(=O)cc(Nc2ccc(Br)cc2F)c2c(=O)n(CC(O)CO)ccc21 (racemic) [Example 2, 4-(4-bromo-2-fluorophenylamino)-6-(2,3-dihydroxypropyl)-1-methyl-1,6-naphthyridine-2,5(1H,6H)-dione] | < 100
Cn1c(=O)cc(Nc2ccc(I)cc2F)c2c(=O)n(C[C@@H](O)CO)ccc21 [Example 1R, (R)-6-(2,3-dihydroxypropyl)-4-(2-fluoro-4-iodophenylamino)-1-methyl-1,6-naphthyridine-2,5(1H,6H)-dione] | < 100
Cn1c(=O)cc(Nc2ccc(I)cc2F)c2c(=O)n(C[C@H](O)CO)ccc21 [Example 1S, (S)-6-(2,3-dihydroxypropyl)-4-(2-fluoro-4-iodophenylamino)-1-methyl-1,6-naphthyridine-2,5(1H,6H)-dione] | < 100
Cn1c(=O)c(F)c(Nc2ccc(Br)cc2F)c2c(=O)n(C[C@@H](O)CO)ccc21 [Example 4, (R)-4-(4-bromo-2-fluorophenylamino)-6-(2,3-dihydroxypropyl)-3-fluoro-1-methyl-1,6-naphthyridine-2,5(1H,6H)-dione] | < 100
C#Cc1ccc(Nc2c(F)c(=O)n(C)c3ccn(C[C@@H](O)CO)c(=O)c23)c(F)c1 [Example 5, (R)-6-(2,3-dihydroxypropyl)-4-(4-ethynyl-2-fluorophenylamino)-3-fluoro-1-methyl-1,6-naphthyridine-2,5(1H,6H)-dione] | < 100
Cn1c(=O)cc(Nc2ccc(C3CC3)cc2F)c2c(=O)n(C[C@@H](O)CO)ccc21 [Example 6, (R)-4-(4-cyclopropyl-2-fluorophenylamino)-6-(2,3-dihydroxypropyl)-1-methyl-1,6-naphthyridine-2,5(1H,6H)-dione] | ≥ 100

Further lines, results first:

IC50 [nM] | Structure (SMILES)
≥ 100 | Cn1c(=O)cc(Nc2ccc(Br)cc2F)c2c(=O)n(C[C@@H](O)CO)ccc21 [Example 2R, (R)-4-(4-bromo-2-fluorophenylamino)-6-(2,3-dihydroxypropyl)-1-methyl-1,6-naphthyridine-2,5(1H,6H)-dione]
< 100 | Cn1c(=O)cc(Nc2ccc(Br)cc2F)c2c(=O)n(C[C@H](O)CO)ccc21 [Example 2S, (S)-4-(4-bromo-2-fluorophenylamino)-6-(2,3-dihydroxypropyl)-1-methyl-1,6-naphthyridine-2,5(1H,6H)-dione]
< 100 | Cn1c(=O)c(F)c(Nc2ccc(I)cc2F)c2c(=O)n(C[C@@H](O)CO)ccc21 [Example 3R, (R)-6-(2,3-dihydroxypropyl)-3-fluoro-4-(2-fluoro-4-iodophenylamino)-1-methyl-1,6-naphthyridine-2,5(1H,6H)-dione]
< 100 | Cn1c(=O)c(F)c(Nc2ccc(I)cc2F)c2c(=O)n(C[C@H](O)CO)ccc21 [Example 3S, (S)-6-(2,3-dihydroxypropyl)-3-fluoro-4-(2-fluoro-4-iodophenylamino)-1-methyl-1,6-naphthyridine-2,5(1H,6H)-dione]
